Measured values taken from patent US5728724A, “Benzothiophene compounds” (Eli Lilly and Company, priority 1996, dated 1998).

How the values were obtained:
Assay type in all cases: in vivo, Sprague Dawley rats
[1] = test system: uterus of ovariectomized (OVX) rats; assay: Uterine weight in ovariectomized rats (post-menopausal model, agonist activity)
Experimental: (§1) In the examples illustrating the methods, a post-menopausal model was used in which effects of different treatments upon circulating lipids were determined.
(§2) Seventy-five day old female Sprague Dawley rats (weight range of 200 to 225g) were obtained from Charles River Laboratories (Portage, Mich.). The animals were either bilaterally ovariectomized (OVX) or exposed to a Sham surgical procedure at Charles River Laboratories, and then shipped after one week. Upon arrival, they were housed in metal hanging cages in groups of 3 or 4 per cage and had ad libitum access to food calcium content approximately 0.5%) and water for one week. Room temperature was maintained at 22.2°±1.7° C. with a minimum relative humidity of 40%. The photoperiod in the room was 12 hours light and 12 hours dark.
(§3) Dosing Regimen Tissue Collection. After a one week acclimation period (therefore, two weeks post-OVX) daily dosing with test compound was initiated. […] Animals were dosed daily for 4 days. Following the dosing regimen, animals were weighed and anesthetized with a ketamine: Xylazine (2:1, V:V) mixture and a blood sample was collected by cardiac puncture. The animals were then sacrificed by asphyxiation with CO2, the uterus was removed through a midline incision, and a wet uterine weight was determined.

[2] = test system: Uterine Eosinophil Peroxidase (EPO); assay: Uterine Eosinophil Peroxidase (EPO) Assay in ovariectomized rats; parameters: key: max velocity of A450 increase over a 15 s interval; conditions: 0.1 mg/kg, oral, daily for 4 days, OVX rats
Experimental: as §1, §2, §3
Uterine Eosinophil Peroxidase (EPO) Assay. Uteri were kept at 4° C. until time of enzymatic analysis. The uteri were then homogenized in 50 volumes of 50 mM Tris buffer (pH-8.0) containing 0.005% Triton X-100. Upon addition of 0.01% hydrogen peroxide and 10 mM O-phenylenediamine (final concentrations) in Tris buffer, increase in absorbance was monitored for one minute at 450 nm. The presence of eosonophils in the uterus is an indication of estrogenic activity of a compound. The maximal velocity of a 15 second interval was determined over the initial, linear portion of the reaction curve.

[3] = test system: Serum Cholesterol; assay: Serum cholesterol analysis in ovariectomized rats; conditions: OVX rats
Experimental: as §1, §2, §3
Cholesterol Analysis. Blood samples were allowed to clot at room temperature for 2 hours, and serum was obtained following centrifugation for 10 minutes at 3000 rpm. Serum cholesterol was determined using a Boehringer Mannheim Diagnostics high performance cholesterol assay. Briefly the cholesterol was oxidized to cholest-4-en-3-one and hydrogen peroxide. The hydrogen peroxide was then reacted with phenol and 4-aminophenazone in the presence of peroxidase to produce a p-quinone imine dye, which was read spectrophotemetrically at 500 nm. Cholesterol concentration was then calculated against a standard curve. The entire assay was automated using a Biomek Automated Workstation.

[4] = test system: femur density of ovariectomized rats; assay: Osteoporosis Test (bone density of ovariectomized rats); conditions: OVX rats, daily for 35 days
Excerpt: Following the General Preparation Procedure, infra, the rats or treated daily for 35 days (6 rats per treatment group) and sacrificed by carbon dioxide asphyxiation on the 36th day. The 35 day time period is sufficient to allow maximal reduction in bone density, measured as described herein. At the time of sacrifice, the uteri are removed, dissected free of extraneous tissue, and the fluid contents are expelled before determination of wet weight in order to confirm estrogen deficiency associated with complete ovariectomy. […] The uteri are then placed in 10% neutral buffered formalin to allow for subsequent histological analysis. The right femurs are excised and digitilized x-rays generated and analyzed by an image analysis program (NIH image) at the distal metaphysis. The proximal aspect of the tibiae from these animals are also scanned by quantitative computed tomography. In general, ovariectomy of test animals will cause a significant reduction in femur density compared to intact, vehicle treated controls.

## C#C[C@]1(O)CC[C@H]2[C@@H]3CCc4cc(O)ccc4[C@H]3CC[C@@]21C [EE2, 17α-ethynyl estradiol, reference compound]
[1]; Rattus norvegicus, po, 96 h, 0.1 mg/kg, daily for 4 days, read-out: Uterine Weight (% increase vs. OVX)
  change in vivo at 0.1 mg/kg: 86.3%
[1]; oral, EE2 at 0.1 mg/kg/day
  Uterine weight / uterine stimulation, result in words: exerted a stimulatory action on the uterus so that EE2 uterine weight was substantially greater than the uterine weight of ovariectomized test animals
[2]
  Uterine EPO (V. max): 116.4
[3]; Rattus norvegicus, po, 96 h, 0.1 mg/kg, daily for 4 days, read-out: Serum Cholesterol (% decrease vs. OVX)
  inhibition in vivo at 0.1 mg/kg: 81.4%
[3]; oral, EE2 at 0.1 mg/kg/day
  Serum cholesterol, result in words: caused a decrease in serum cholesterol
[4]
  Prevention of bone loss after ovariectomy, result in words: usually prevents this loss
